Laboratory results taken from patent US10865191B2, “Heterocyclic compounds useful as modulators of TNF alpha” (BRISTOL-MYERS SQUIBB COMPANY, priority 2015, dated 2020).

target: TNFα (Homo sapiens, UniProt P01375); test: TNF induced HEK-Blue assay (NF-kB-driven secreted alkaline phosphatase reporter); format: cell-based; conditions: TNF induced HEK-Blue assay IC50 value, TNFα 0.5 ng/mL, HEK-Blue-CD40L cells, 18 h
Procedure, shortened: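 HEK-Blue-CD40L cells (NF-kB-driven SEAP reporter), 20,000/well, added after 30 min pre-incubation of compound (0.004–25 μM final) with TNFα 0.5 ng/mL final at 37 °C; 18 h incubation. SEAP read with QUANTI-Blue at 620 nm; IC50 from 4-parameter logistic fit, normalized to unstimulated and stimulated DMSO controls.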

Sequence of TNFα (P01375 77-233 limits assumed): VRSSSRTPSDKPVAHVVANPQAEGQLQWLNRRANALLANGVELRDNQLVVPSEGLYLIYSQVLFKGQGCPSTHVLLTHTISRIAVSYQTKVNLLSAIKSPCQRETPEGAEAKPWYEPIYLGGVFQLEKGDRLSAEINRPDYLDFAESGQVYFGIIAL

Row | SMILES | IC50
1 | C[C@@H](Nc1c(Cl)cnc2ccc(-c3cnc(N4CCS(=O)(=O)CC4)nc3)cc12)c1ccccc1F [Example 225, (R)-4-(5-(3-chloro-4-((1-(2-fluorophenyl)ethyl)amino)quinolin-6-yl)pyrimidin-2-yl)thiomorpholine 1,1-dioxide] | < 1 µM

same assay, conditions: TNFα 0.5 ng/mL, HEK-Blue-CD40L cells, 18 h; read-out: TNF induced HEK-Blue assay IC50 value

Row | SMILES | IC50
2 | C[C@@H](Nc1c(Cl)cnc2ccc(-c3cnc(C(C)(C)O)nc3)cc12)c1cc(CN)ccc1F [Example 429, (R)-2-(5-(4-((1-(5-(aminomethyl)-2-fluorophenyl)ethyl)amino)-3-chloroquinolin-6-yl)pyrimidin-2-yl)propan-2-ol] | < 1 µM
3 | COc1ncc(-c2ccc(F)c([C@@H](C)Nc3c(Cl)cnc4ccccc34)c2)cn1 [Example 543, (R)-3-chloro-N-(1-(2-fluoro-5-(2-methoxypyrimidin-5-yl)phenyl)ethyl)quinolin-4-amine] | 10 to 25 µM
4 | CC(Nc1c(Cl)cnc2c(Cl)cc(Br)cc12)c1ccccc1F (racemic) [Example 122, 6-bromo-3,8-dichloro-N-(1-(2-fluorophenyl)ethyl)quinolin-4-amine] | 10 to 25 µM
5 | CC(Nc1c(Cl)cnc2ccc(-c3cnc(C(C)(C)O)nc3)cc12)c1cc(Cl)ccn1 (racemic) [Example 62, 2-(5-(3-chloro-4-((1-(4-chloropyridin-2-yl)ethyl)amino)quinolin-6-yl)pyrimidin-2-yl)propan-2-ol] | 1 to 10 µM
6 | Cc1nc2ccc(C3C=NC(C(C)(C)O)=NC3)cc2c(N[C@H](C)c2cc(CO)ccc2F)c1Cl (stereo partly drawn) [Example 432, (R)-2-(5-(3-chloro-4-((1-(2-fluoro-5-(hydroxymethyl)phenyl)ethyl)amino)-2-methylquinolin-6-yl)-4,5-dihydropyrimidin-2-yl)propan-2-ol] | < 1 µM
7 | CC(=O)NC1(c2ccc(-c3ccc4ncc(Cl)c(N[C@H](C)c5ccccc5F)c4c3)cc2)CCC1 [Example 113, (R)—N-(1-(4-(3-chloro-4-((1-(2-fluorophenyl)ethyl)amino)quinolin-6-yl)phenyl)cyclobutyl)acetamide] | 10 to 25 µM
8 | C[C@@H](Nc1c(Cl)cnc2ccccc12)c1cc(-c2cccc(N)c2)ccc1F [Example 526, (R)—N-(1-(3′-amino-4-fluoro-[1,1′-biphenyl]-3-yl)ethyl)-3-chloroquinolin-4-amine] | 1 to 10 µM
9 | Cc1ccc(C)c(Nc2c(F)c(C)nc3ccc(-c4cnc(N5CCN(CC(=O)O)CC5)nc4)cc23)c1 [Example 187, 2-(4-(5-(4-((2,5-dimethylphenyl)amino)-3-fluoro-2-methylquinolin-6-yl)pyrimidin-2-yl)piperazin-1-yl)acetic acid] | < 1 µM
10 | C[C@@H](Nc1c(Cl)cnc2ccc(-c3ccc(C4(N)CC4)cc3)cc12)c1ccccc1F [Example 102, (R)-6-(4-(1-aminocyclopropyl)phenyl)-3-chloro-N-(1-(2-fluorophenyl)ethyl)quinolin-4-amine] | < 1 µM
11 | Cc1nc2cc(F)c(-c3cnc(C(C)(C)O)nc3)cc2c(N[C@H](C)c2cccc(C(N)=O)c2)c1Cl [Example 394, (R)-3-(1-((3-chloro-7-fluoro-6-(2-(2-hydroxypropan-2-yl)pyrimidin-5-yl)-2-methylquinolin-4-yl)amino)ethyl)benzamide] | < 1 µM
12 | CC(Nc1c(Cl)cnc2ccc(-c3cnc(N4CCNC(=O)C4)nc3)cc12)c1nc(N)ccc1F (stereo not shown) [Example 562, 4-(5-(4-((1-(6-amino-3-fluoropyridin-2-yl)ethyl)amino)-3-chloroquinolin-6-yl)pyrimidin-2-yl) piperazin-2-one] | < 1 µM
13 | Cc1nc2c(F)cc(-c3ccc(C(C)(C)O)cc3)cc2c(N[C@@H](c2ccccc2F)C(F)F)c1Cl [Example 305, (S)-2-(4-(3-chloro-4-((2,2-difluoro-1-(2-fluorophenyl)ethyl)amino)-8-fluoro-2-methylquinolin-6-yl)phenyl)propan-2-ol] | < 1 µM
14 | C=Cc1ccc(F)c([C@@H](C)Nc2c(Cl)cnc3cc(F)c(-c4cnc(C(C)(C)O)nc4)nc23)c1 [Example 188, (R)-2-(5-(7-chloro-3-fluoro-8-((1-(2-fluoro-5-vinylphenyl)ethyl)amino)-1,5-naphthyridin-2-yl)pyrimidin-2-yl)propan-2-ol] | < 1 µM
15 | C[C@H](Nc1c(Cl)cnc2ccc(-c3cnc(C(C)(C)O)nc3)cc12)C1CCCCC1 [Example 59, (S)-2-(5-(3-chloro-4-((1-cyclohexylethyl)amino)quinolin-6-yl)pyrimidin-2-yl)propan-2-ol] | 10 to 25 µM
16 | C=Cc1cccc(C(Nc2c(Cl)cnc3cc(F)c(-c4cnc(C(C)(C)O)nc4)nc23)C(F)F)c1 (racemic) [Example 216, 2-(5-(7-chloro-8-((2,2-difluoro-1-(3-vinylphenyl)ethyl)amino)-3-fluoro-1,5-naphthyridin-2-yl)pyrimidin-2-yl) propan-2-ol] | < 1 µM
17 | CNC(=O)c1ccc(-c2ccc3nc(C)c(Cl)c(Nc4cc(C)ccc4C)c3c2)cn1 [Example 8, 5-(3-chloro-4-((2,5-dimethylphenyl)amino)-2-methylquinolin-6-yl)-N-methylpicolinamide] | < 1 µM
18 | C[C@@H](Nc1c(Cl)cnc2cc(F)c(-c3cnc(C(C)(C)O)nc3)nc12)c1ccccc1 [Example 193, (R)-2-(5-(7-chloro-3-fluoro-8-((1-phenylethyl)amino)-1,5-naphthyridin-2-yl)pyrimidin-2-yl)propan-2-ol] | < 1 µM

Row | SMILES | IC50
19 | O=C(O)CN1CCN(c2ncc(-c3ccc4ncc(Cl)c(N[C@@H](c5ccccc5F)C(F)F)c4c3)cn2)CC1 [Example 92, (S)-2-(4-(5-(3-chloro-4-((2,2-difluoro-1-(2-fluorophenyl)ethyl)amino)quinolin-6-yl)pyrimidin-2-yl)piperazin-1-yl)acetic acid] | < 1 µM
20 | C[C@@H](Nc1c(Cl)cnc2ccc(-c3ccc(N4CCC(CC(=O)O)CC4)nc3)cc12)c1ccccc1F [Example 82, (R)-2-(1-(5-(3-chloro-4-((1-(2-fluorophenyl)ethyl)amino)quinolin-6-yl)pyridin-2-yl)piperidin-4-yl)acetic acid] | < 1 µM
21 | C[C@H](Nc1c(Cl)cnc2ccc(-c3cnc(C(C)(C)O)nc3)cc12)[C@H]1CCCN(S(C)(=O)=O)C1 [Example 563, 2-(5-(3-chloro-4-(((S)-1-((S)-1-(methylsulfonyl)piperidin-3-yl)ethyl)amino)quinolin-6-yl)pyrimidin-2-yl)propan-2-ol] | 1 to 10 µM
22 | Cc1nc2cc(F)c(-c3cnc(C(C)(C)O)nc3)cc2c(N[C@H](C)c2cc(CCO)ccc2F)c1Cl [Example 325, (R)-2-(5-(3-chloro-7-fluoro-4-((1-(2-fluoro-5-(2-hydroxyethyl)phenyl)ethyl)amino)-2-methylquinolin-6-yl)pyrimidin-2-yl) propan-2-ol] | < 1 µM
23 | Cc1nc2cc(F)c(-c3cnc(C(C)(C)O)nc3)cc2c(N[C@H](C)c2cc(C(N)=O)ccc2F)c1Cl [Example 393, (R)-3-(1-((3-chloro-7-fluoro-6-(2-(2-hydroxypropan-2-yl)pyrimidin-5-yl)-2-methylquinolin-4-yl)amino)ethyl)-4-fluorobenzamide] | < 1 µM
24 | C[C@@H](Nc1c(Cl)cnc2ccc(-c3cnc(C(C)(C)O)nc3)cc12)c1cc(C=NO)ccc1F [Example 424, (R)-3-(1-((3-chloro-6-(2-(2-hydroxypropan-2-yl)pyrimidin-5-yl)quinolin-4-yl)amino)ethyl)-4-fluorobenzaldehyde oxime] | < 1 µM
25 | Fc1ccc(Br)cc1[C@@H](Nc1c(Cl)cnc2ccccc12)C(F)F [Example 510, (R)—N-(1-(5-bromo-2-fluorophenyl)-2,2-difluoroethyl)-3-chloroquinolin-4-amine] | 1 to 10 µM
26 | C[C@@H](Nc1c(Cl)cnc2ccc(-c3ccc(C4(N)CC(O)C4)cc3)cc12)c1ccccc1F (mixture of isomers) [Example 119, (R)-3-amino-3-(4-(3-chloro-4-((1-(2-fluorophenyl)ethyl)amino)quinolin-6-yl)phenyl)cyclobutan-1-ol] | < 1 µM
27 | Cc1ccc(C)c(Nc2c(Cl)c(N)nc3ccc(-c4cnc(NCC(O)CO)nc4)cc23)c1 (racemic) [Example 73, 3-((5-(2-amino-3-chloro-4-((2,5-dimethylphenyl)amino)quinolin-6-yl)pyrimidin-2-yl)amino)propane-1,2-diol] | 1 to 10 µM
28 | C[C@@H](Nc1c(Cl)cnc2ccccc12)c1cc(-c2ccc(C#N)nc2)ccc1F [Example 514, (R)-5-(3-(1-((3-chloroquinolin-4-yl)amino)ethyl)-4-fluorophenyl)picolinonitrile] | < 1 µM
29 | C[C@@H](Nc1c(Cl)cnc2ccc(-c3ccc(N4CCNCC4)nc3)cc12)c1ccccc1F [Example 88, (R)-3-chloro-N-(1-(2-fluorophenyl)ethyl)-6-(6-(piperazin-1-yl)pyridin-3-yl)quinolin-4-amine] | 1 to 10 µM
30 | CC(C)(O)c1ncc(-c2ccc3ncc(Cl)c(NCc4ccc(C(F)(F)F)cc4)c3c2)cn1 [Example 145, 2-(5-(3-chloro-4-(4-(trifluoromethyl)benzylamino)quinolin-6-yl)pyrimidin-2-yl)propan-2-ol] | 10 to 25 µM
31 | Cc1ccc(Br)cc1Nc1c(Cl)c(C)nc2ccccc12 [Example 470, N-(5-bromo-2-methylphenyl)-3-chloro-2-methylquinolin-4-amine] | 10 to 25 µM
32 | CC(Nc1c(Cl)cnc2ccc(-c3ccc(C(C)(C)O)cc3)cc12)c1ccncn1 (racemic) [Example 173, 2-(4-(3-chloro-4-((1-(pyrimidin-4-yl)ethyl)amino)quinolin-6-yl)phenyl)propan-2-ol] | 1 to 10 µM
33 | COc1ccc(F)c([C@@H](C)Nc2c(Cl)cnc3ccccc23)c1 [Example 451, (R)-3-chloro-N-(1-(2-fluoro-5-methoxyphenyl)ethyl)quinolin-4-amine] | 1 to 10 µM
34 | COc1ccc(F)c([C@H](C)Nc2c(Cl)cnc3ccccc23)c1 [Example 476, (S)-3-chloro-N-(1-(2-fluoro-5-methoxyphenyl)ethyl)quinolin-4-amine] | 1 to 10 µM
